Consider 1 compound from patent publication US20250296971A1, “GASTRIC INHIBITORY PEPTIDE RECEPTOR LIGANDS” (priority 2021, published 2025).

*1 amine or outer side, *2 acyl side, *3 side chain or, on linkers, in order; H or OH if unused. Where a SMILES comes first, the peptide text is derived from it. Bridges are numbered along the chain shown (N, C = ends). [ ]: non-standard residue; d: D form. The star is where a group is joined. NH(1-deoxy-D-glucityl) = OC[C@@H](O)[C@@H](O)[C@H](O)[C@@H](O)CN*; DOTA = O=C(O)CN1CCN(CC(=O)O)CCN(CC(=O)*)CCN(CC(=O)O)CC1; Trp(5-Cl) = N[C@@H](Cc1c[nH]c2ccc(Cl)cc12)C(=O)O; Pyridine(2,6-diCH2) = c1cc(C[*:1])nc(C[*:2])c1; Pro(4R-NH2) = N[C@H]1CN[C@H](C(=O)O)C1; Glutaryl = O=C(CCCC(=O)[*:2])[*:1]; X1 = O=C(CN1CCC(N[*:1])CC1)[*:2]; Api = NC1(C(=O)O)CCNCC1

Assay [1] has as its target T1, human GIP receptor (bioGIPR) (Homo sapiens, UniProt P48546).
T1 construct: Biotinylate extracellular of the human GIP receptor (bioGIPR, Proteros biostructures GmbH, lot #02/2b); purchased Proteros biostructures GmbH lot #02/2b
T1 sequence (P48546 22-138 limits assumed): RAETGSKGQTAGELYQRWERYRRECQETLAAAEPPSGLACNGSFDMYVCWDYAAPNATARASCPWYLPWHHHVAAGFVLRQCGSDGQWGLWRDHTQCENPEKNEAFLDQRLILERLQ
As to the kind of experiment: Surface plasmon resonance (SPR) based binding assay. The following applies: Single Cycle Kinetic mode, 25° C. The method, boiled down: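 Binding was measured at 25 °C by single-cycle kinetics against a reference flow cell, with blank-run and drift correction, after capturing biotinylated GIPR extracellular domain to ~3500 RU. Running buffer: HBST, 0.1% DMSO. A 1:1 Langmuir model gave kinetic rates, KD, t1/2 and pKD.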
In general terms: Surface plasmon resonance follows binding to a sensor surface in real time, without labels.

Another assay deals with T2, Dog GIPR (Canis lupus familiaris, UniProt A0A8I3MPG1).
T2 construct: host or cells: CHO-VGT
T2 sequence (A0A8I3MPG1 24-449): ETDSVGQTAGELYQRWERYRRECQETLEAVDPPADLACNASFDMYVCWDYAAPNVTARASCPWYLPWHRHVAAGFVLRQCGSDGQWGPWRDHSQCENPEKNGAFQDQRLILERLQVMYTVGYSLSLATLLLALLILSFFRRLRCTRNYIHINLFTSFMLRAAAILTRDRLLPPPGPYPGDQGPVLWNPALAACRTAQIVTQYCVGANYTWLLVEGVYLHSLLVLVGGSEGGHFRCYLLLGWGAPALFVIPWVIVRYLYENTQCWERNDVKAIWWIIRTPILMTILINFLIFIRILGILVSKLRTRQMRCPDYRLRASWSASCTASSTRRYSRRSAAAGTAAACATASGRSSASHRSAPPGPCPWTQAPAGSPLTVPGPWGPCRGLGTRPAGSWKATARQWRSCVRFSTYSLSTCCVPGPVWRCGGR
As to the kind of experiment: Radioligand binding assay, dog GIPR. Conditions: 111In-labeled compound, 6 h, 37° C., read-out: pKD Category (converted). Here is the method:
In order to assess the affinity of ^111In-labeled compounds to the GIPR receptor of different species, a radioligand binding assay was established.
CHO-K1 cells (GenScript Biotech, #M00486) were stably transfected with the human GIPR. CHO-K1-hGIPR cells were cultured in Ham's F12 medium (Sigma-Aldrich, #N4888) including 10% fetal calf serum (FCS), 2 mM L-glutamine, 100 U/mL penicillin, 100 µg/mL streptomycin, 200 µg/mL Zeocin and 100 µg/mL HygromycinB. To evaluate the species cross-reactivity, CHO-VGT cells were transfected with the human, dog, rat and mouse GIPR (Inscreenex GmbH), which were cultured in DMEM/Ham's F12 Medium 1:1 (Biochrom, #F485) including 5% fetal calf serum (FCS), 2 mM L-glutamine, 100 U/mL penicillin and 100 μg/mL streptomycin. Cells were detached with Accutase (Biolegend, #BLD-423201) and counted using a particle counter (CASY Model TT; Schärfe Systems). Cell concentrations were adjusted to 3×10^5 mL^−1, and 1.000 μL of the suspension per well were dispensed into flat-clear-bottom 24 well plates.
Approximately 24 hours after re-seeding, the medium was aspirated and the cells were washed once with 700 μL assay medium (Ham's medium with 20 mM HEPES). […]
At the end of incubation time, cells were washed and subsequently harvested in 300 μL RIPA buffer containing PIC. Radioactivity of the cell lysate of each well was counted using a gamma counter (Perkin Elmer). […]

Turning to `CC[C@H](C)[C@@H]1NC(=O)[C@H](CC(C)C)NC(=O)C2(CCN(C(=O)CN3CCN(CC(=O)O)CCN(CC(=O)O)CCN(CC(=O)O)CC3)CC2)NC(=O)[C@@H](NC(=O)[C@@H](CC(C)C)NC(=O)[C@H](CCC(=O)O)NC(=O)[C@@H]2C[C@@H](N)CN2C(=O)[C@H](Cc2c[nH]c3ccc(Cl)cc23)NC(=O)[C@H](Cc2c[nH]c3ccccc23)NC(=O)[C@H](CC(=O)O)NC(=O)CCCC(=O)NC[C@H](O)[C@@H](O)[C@H](O)[C@H](O)CO)CSCc2cccc(n2)CSC[C@@H](C(=O)NC2CCN(CC(=O)N[C@H](CCC(=O)NC[C@H](O)[C@@H](O)[C@H](O)[C@H](O)CO)C(N)=O)CC2)NC1=O` [GIP-001, AGLU-Glutar-Asp-Trp-5Clw-Tap-Glu-leu-[Cys(2Lut)-Apc(DOTA)-Leu-Ile-Cys]-APAc-glu(AGLU)-NH2] ({NH(1-deoxy-D-glucityl)-Glutaryl}-DW[Trp(5-Cl)][Pro(4R-NH2)]E[dL]C[Api](DOTA)LIC[X1][dE](NH(1-deoxy-D-glucityl))-NH2; linker 7-11 via Pyridine(2,6-diCH2)), the “t1/2 Category” value in assay [1] (SPR dissociation half-life) is recorded as “A (t1/2 values>15 min)”. The Kd is < 1 nM in assay [1] (SPR, 1:1 Langmuir binding model, read-out: pKD Category (converted)) and < 0.316 nM on Dog GIPR.
